In patent publication US9168247B2, “Beta carboline derivatives useful in the treatment of proliferative disorders” (FACULTES UNIVERSITAIRES NOTRE DAME DE LA PAIX, priority 2010, dated 2015):

What was measured:
U373 cells = test: Cellular imaging (videomicroscopy) of cultured U373 cells: antiproliferative class and global growth ratio; assay type: cell-based, human; parameters: key to Anti proliferative class / anti-proliferative class-GGR: class I: actually cytostatic for 3 days (<10% of cell death at the 3rd day); class II: cyctostatic but becomes cytotoxic with <10% cell death on the 2nd day, and >20% of cell death on the 3rd day; class III: cytostatic but rapidly becomes cytotoxic with <10% cell death on the 1st day, >20% of cell death on the 2nd day and >50% of cell death on the 3rd day; class IV: cytotoxic (>50% of cell death on the first day); settings: for global growth ratio (GGR): GG treated cells/GG control cells, 72 h after drug addition, drug at its IC50 (MTT-test determined); for Anti proliferative class: cellular imaging of cultured U373 cells over three consecutive days
Excerpt: The effects of the di- and tri-substituted beta-carboline derivatives as described herein can also be determined on cell proliferation, migration and morphology by means of a cellular imaging approach (Debeir et al., Cytometry 60:29-40, 2004; Debeir et al., IEEE Trans Med Imaging 24:697-711, 2005) either in, e.g., the human U373-MG glioma cell line, which is apoptosis-resistant but autophagy-sensitive (Lefranc F et al., Neurosurgery 2008) or in, e.g., the human A549 non-small-cell-lung cancer cell line, which is apoptosis-resistant and autophagy-resistant (Mijatovic T et al., Neoplasia 2006, May; 8(5):402-12).
[…] The experiments are conducted in quadruplicates.
The behaviour of the cells, in terms of morphology, growth and death are thus investigated. The effect on the overall growth is measured by counting the number of cells on the first (0 h) and the last image (72 h) of each film. The global growth ratio (GGR) is then deduced by dividing the number of cells on the last image by the number of cells on the first image. The ratio GGRtreated cells/GGRcontrol cells is further calculated thereby providing a value that describes the effect of compounds of the present invention on the overall cell growth.
The methodology is fully described and validated in Debeir et al., 2008, Exp Cell Res 314:2985-2998 and Mathieu et al., 2009, J Cell Mol Med, Feb. 20, 2009.

[1] = system: human cancer cell lines (U373, T98G, Hs683, OE21, OE33); test: MTT test, mean over the cancer cell lines; assay type: cell-based; settings: mean over the cancer cell lines, MTT test; read-out: IC50 Mean ± SEM
Description: (§1) MTT tests were performed in order to rapidly, i.e., within 5 days, measure the effect of the present compounds on the overall cell growth. The test measured the number of metabolically active living cells that were able to transform the yellow product 3-(4,5-dimethylthiazol-2-yl)-2,5-diphenyl tetrazolium bromide (herein referred as MTT) into the blue product formazan dye by mitochondrial reduction. The amount of formazan obtained at the end of the experiment, measured by means of a spectrophotometer, is directly proportional to the number of living cells. Optical density determination thus enabled a quantitative measurement of the effect of the investigated compounds as compared to the control condition (untreated cells) and/or to other reference compounds.
(§2) Five human cancer cell lines set forth in Table 3 were used in the MTT tests. These cancer cell lines cover two histological cancer types including glioma (Hs683, T98G, U373), and oesophageal (OE21, OE33) cancers. The U373 cell line is apoptosis-resistant but autophagy-sensitive.
(§3) To perform the assay, cells were allowed to grow in 96-well micro-wells with a flat bottom with an amount of 100 μl of cell suspension per well with 5,000 to 8,000 cells/well depending on the cell type used. Each cell line was seeded in its appropriate culture medium.
(§4) The detailed experimental procedure was as follows: after a 24-hour period of incubation at 37° C., the culture medium was replaced by 100 μl of fresh medium in which the tested compound was previously dissolved, at the following molar concentrations: 1×10^−8 M, 5×10^−8 M, 1×10^−7 M, 5×10^−7 M, 1×10^−6 M, 5×10^−6 M, 1×10^−5 M, 5×10^−5 M and 1×10^−4 M. Each experiment was performed in sestuplicate (6 times).
(§5) After 72 hours of incubation at 37° C. with (experimental conditions) or without (control condition) the compound to be tested, the medium was replaced by 100 μl MTT dissolved in RPMI (1640 without phenol red) at a concentration of 0.5 or 1 mg/ml. The micro-wells were subsequently incubated during 3 hours and a half at 37° C. and centrifuged at 1300 rpm during 10 minutes. MTT was removed and formazan crystals formed were dissolved in […]. The micro-wells were shaken for 5 minutes and read on a spectrophotometer at wavelengths of 570 nm (maximal formazan absorbance).
(§6) For each experimental condition, the mean optical density was calculated, allowing the determination of the percentage of remaining living cells in comparison to the control.
(§7) The origin of all the cell lines we used, along with their biological characteristics, and the validation procedures of the MTT colorimetric assay as employed here are fully detailed in Van Quaquebeke et al., 2005, J Med Chem 48:849-856; Ingrassia et al., 2009, J Med Chem 52:1100-1114; Mathieu et al., 2009, J Cell Mol Med, Feb. 20, 2009.

[2] = system: OE21 oesophageal cancer cells; test: MTT test, overall cell growth, OE21; assay type: cell-based, human; settings: 72 hours of incubation
Description: as §1, §2, §3, §4, §5, §6, §7

[3] = system: OE33 oesophageal cancer cells; test: MTT test, overall cell growth, OE33; assay type: cell-based, human; settings: 72 hours of incubation
Description: as §1, §2, §3, §4, §5, §6, §7

U373 glioma cells = test: MTT test, overall cell growth, U373; assay type: cell-based, human; settings: 72 hours of incubation
Description: as §1, §2, §3, §4, §5, §6, §7

Hs683 glioma cells = test: MTT test, overall cell growth, Hs683; assay type: cell-based, human; settings: 72 hours of incubation
Description: as §1, §2, §3, §4, §5, §6, §7

T98G glioma cells = test: MTT test, overall cell growth, T98G; assay type: cell-based, human; settings: 72 hours of incubation
Description: as §1, §2, §3, §4, §5, §6, §7

Compound	IC50 [1]	IC50 [2]	IC50 [3]	IC50 (U373 glioma cells)	IC50 (Hs683 glioma cells)	IC50 (T98G glioma cells)	melting point	global growth ratio (GGR) (U373 cells)	Anti proliferative class (U373 cells)
Cc1c2[nH]c3cc(OCc4ccccc4)ccc3c2cc[n+]1Cc1ccccc1 [JR88]	5 ± 1 µM	6 ± 0.6 µM	5.5 ± 0.3 µM	3.9 ± 0.2 µM	3.6 ± 0.1 µM	5.6 ± 0.2 µM	–	0.2	II
Cc1nccc2c1[nH]c1cc(OCCCC(F)(F)F)ccc12 [JR110]	> 97 µM	> 100 µM	> 100 µM	> 100 µM	> 100 µM	86 ± 11 µM	–	0.2	IV (class IV: cytotoxic (>50% of cell death on the first day))
Cc1nccc2c1[nH]c1cc(OCC3CCCCC3)ccc12 [JR167]	11 ± 3 µM	8.3 ± 0.2 µM	8.1 ± 0.2 µM	7.48 ± 0.07 µM	22 ± 2 µM	7.2 ± 0.2 µM	–	0.1	IV (class IV: cytotoxic (>50% of cell death on the first day))
C=CCOc1ccc2c(c1)[nH]c1c(C)nccc12 [JR211]	30 ± 1 µM	27 ± 2 µM	29.8 ± 0.7 µM	32 ± 2 µM	28 ± 1 µM	32 ± 0.7 µM	–	0.2	II
Cc1nccc2c1[nH]c1cc(OCC(C)C)ccc12 [JR221]	22 ± 3 µM	12 ± 3 µM	25 ± 1 µM	24 ± 1 µM	23 ± 1 µM	22 ± 3 µM	–	0.1	IV (class IV: cytotoxic (>50% of cell death on the first day))
Cc1nccc2c1[nH]c1cc(OCc3ccncc3)ccc12 [JR222]	5 ± 1 µM	5 ± 0.4 µM	6.3 ± 0.1 µM	2.5 ± 0.2 µM	8.1 ± 0.2 µM	3.6 ± 0.2 µM	–	0.4	II
Cc1nccc2c1[nH]c1cc(OCCO)ccc12 [JR226]	46 ± 6 µM	30 ± 4 µM	63 ± 4 µM	42 ± 2 µM	41 ± 3 µM	53 ± 3 µM	–	0.3	I (class I: actually cytostatic for 3 days (<10% of cell death at the 3rd day))
Cc1nccc2c3ccc(OCCC(C)C)cc3n(CCC(C)C)c12 [PL3, 1-methyl-7-(3-methylbutyloxy)-9-(3-methylbutyl)-β-carboline]	–	–	–	–	–	–	106.4 °C	–	–

More lines, main results first:

IC50 [1]	IC50 [2]	IC50 [3]	IC50 (U373 glioma cells)	IC50 (Hs683 glioma cells)	IC50 (T98G glioma cells)	melting point	Compound	global growth ratio (GGR) (U373 cells)	Anti proliferative class (U373 cells)
37 ± 5 µM	30 ± 4 µM	31 ± 4 µM	27 ± 2 µM	53 ± 3 µM	42 ± 3 µM	–	Cc1nccc2c1[nH]c1cc(OC(=O)c3ccccc3)ccc12 [JR140]	0.2	III
16 ± 5 µM	33 ± 8 µM	8.2 ± 0.4 µM	7.4 ± 0.4 µM	19 ± 2 µM	12 ± 2 µM	–	Cc1nccc2c1[nH]c1cc(OCc3cccc4ccccc34)ccc12 [JR147]	0.2	IV (class IV: cytotoxic (>50% of cell death on the first day))
15 ± 3 µM	14 ± 1 µM	7.9 ± 0.3 µM	9.1 ± 0.6 µM	21 ± 3 µM	21 ± 1 µM	–	Cc1nccc2c1[nH]c1cc(OCCc3ccccc3)ccc12 [JR155]	0.2	IV (class IV: cytotoxic (>50% of cell death on the first day))
20 ± 1 µM	16 ± 3 µM	23 ± 3 µM	21.3 ± 0.8 µM	20 ± 1 µM	20 ± 2 µM	–	Cc1nccc2c1[nH]c1cc(OCc3ccccn3)ccc12 [JR169]	0.4	I (class I: actually cytostatic for 3 days (<10% of cell death at the 3rd day))
